B1: PK2: "Mature human prokineticins (PK1 and PK2) contain 86 and 81 amino acids, respectively"; "recombinant PK2" used as agonist (protein, UniProt Q9HC23 28-129, looked up)
Prokineticin-2: AVITGACDKDSQCGGGMCCAVSIWVKSIRICTPMGKLGDSCHPLTRKNNFGNGRQERRKRKRSKRKKEVPFFGRRMHHTCPCLPGLACLRTSFNRFICLAQK

Legend:
[1] = Glucose tolerance test (GTT), mice fed regular chow; assay type: in vivo
Protocol: (§1) The compound (3R)-1-Benzyl-N-(9-chloro-3,4-dihydro-2H-1,5-benzodioxepin-7-ylmethyl)-N-isobutyl pyrrolidine-3-carboxamide (3Cl-R-PLP) was dissolved in PEG-400 and then resuspended in water with 8% final concentration of PEG-400.8% PEG-400 in water without drug was used as vehicle. Mice were fed with regular chow. Drug or vehicle was gavaged to mice that were fasted overnight. Two hours later, glucose (2 g/kg of body weight) was injected i.p. and whole venous blood obtained from the tail vein at 0, 15, 30, 90 and 120 min after the injection was measured for glucose by using an automatic glucometer (one Touch, Lifescan, Daly, Calif.).

[2] = GTT in mice fed high-fat diet (diet-induced hyperglycemia); assay type: in vivo; conditions: 40 mg/kg body weight, mice on high fat diet 8 weeks (FIG. 2)
Protocol: as §1
High fat diet was fed to mice for 8 weeks to induced diet-induced hyperglycemia. GTT test was carried out as described earlier.

[3] = Chronic treatment in diet-induced diabetes model, circulating glucose; assay type: in vivo, mice; conditions: 0.1 and 0.01 mg/ml in drinking water for two weeks; measured 3, 7 and 14 days; high-fat diet 8 weeks (FIG. 3)
Protocol: Diet-induced diabetes models were created by feeding with high-fat diet for 8 weeks. These mice developed glucose intolerance and hyperglycemia. 3Cl-R-PLP was dissolved in drinking water and given to mice for two weeks. Circulating glucose levels were measured 3, 7 and 14 days after 3Cl-R-PLP treatment.

[4] = Chronic treatment in db/db mice, glucose levels; assay type: in vivo; conditions: 0.1 mg/mL in drinking water, 2 weeks, 10-week old db/db mice, fed and fasting conditions (FIG. 4)
Protocol: Db/db mice are commonly used as genetic models of type II diabetes. 10-week old db/db mice were treated with 3Cl-R-PLP (0.1 mg/mL in drinking water) or vehicle for 2 weeks.

[5] = PK2 administration in GTT, wild type mice; assay type: in vivo; conditions: 10 nmol/kg and 200 nmol/kg, wild type mice (FIG. 8)
Protocol: as §1
The inventors next tested the effect of PK2 administration on the performance of GTT test in wild type mice. […] This is consistent with observations that PK2-deficient mice have enhanced glucose clearance abilities.

[6] = Glucose-induced insulin secretion in vivo after PK2 administration; set-up: species or system mice; conditions: glucose i.p., 30 min (FIG. 10)
Excerpt: To understand whether insulin is directly involved, the inventors examined whether PK2 and/or its two cognate receptors, PKR1 and PKR2, are expressed in pancreas beta cells. […] The inventors tested whether this glucose-induced insulin secretion was inhibited by PK2. […] Consistent with the inhibitory effect of PK2 on insulin secretion, PK2-deficient mice have increased circulating insulin level. It is likely that at least some of glucose-lowering effects of PK2 antagonists were due to their abilities to increase insulin secretion as depicted in FIG. 11.

MIN6 cells [7] = assay: Glucose-stimulated insulin secretion in MIN6 cells; assay type: cell-based; conditions: 15 mM glucose, PK2 added (FIG. 12A)
Excerpt: (§2) To investigate the direct effects of PK2 on the insulin secretion, the inventors performed a glucose-stimulated insulin secretion on β-cell like MIN6 cells. […] To specifically test the effects of endogenous PK2, the inventors treated MIN6 cells with 4Ind-3Cl-R-BMA along with low and high concentrations of glucose. […] As PK2 receptors have been reported coupling to Gi or Gq proteins, the inventors examined the possible signaling transduction of PK2 receptor in MIN6 cells.

MIN6 cells [8] = assay: Forskolin-induced cAMP levels in MIN6 cells; assay type: cell-based; conditions: PK2 (FIG. 12C)
Excerpt: as §2

MIN6 cells [9] = assay: Cytosolic calcium mobilization in MIN6 cells; assay type: cell-based
Excerpt: as §2

Molecule	dose dependence of performance in GTT ([1]; 0, 1, 4, 12 and 40 mg/kg of body weight (FIG. 1B))	glucose clearance in GTT ([1]; 4 mg/kg of body weight, gavage 2 h before glucose 2 g/kg i.p., fasted mice, regular chow (FIG. 1A))	glucose clearance in GTT [2]	circulating glucose levels [3]	glucose levels [4]	rate of glucose clearance in GTT [5]	glucose-induced elevation of circulating insulin [6]	insulin secretion induced by glucose (MIN6 cells [7])	forskolin-induced cAMP levels (MIN6 cells [8])	cytosolic calcium mobilization (MIN6 cells [9])
CC(C)CN(Cc1cc(Cl)c2c(c1)OCCCO2)C(=O)[C@@H]1CCN(Cc2ccccc2)C1 [Example 15, (3R)-1-Benzyl-N-(9-chloro-3,4-dihydro-2H-1,5-benzodioxepin-7-ylmethyl)-N-isobutyl pyrrolidine-3-carboxamide]	dose-dependent effect	improved glucose clearance significantly	significantly improved glucose clearance	effectively decreased the glucose levels	significantly decreased glucose levels	–	–	–	–	–
B1	–	–	–	–	–	significantly reduced the rate of glucose clearance	significantly inhibited glucose-induced elevation of insulin in circulation	significantly suppressed the insulin secretion	significantly inhibited forskolin-induced cAMP levels	didn't elicit cytosolic calcium mobilization
